From US20110150833A1, “BENZOPYRANS AND ANALOGS AS RHO KINASE INHIBITORS” (The Scripps Research Institute, priority 2007, published 2011)
pIC50: −log10 of the molar value.

Tested on: N2a cells
Test: In vitro cell-based neurite length (N2a) assay
Conditions: Mus musculus, neurite retraction induced by 5 uM LPA
Method: In Vitro Cell-Based Neurite Length (N2a) Assay
N2a cells are maintained in DMEM/FBS at 37 C and 5% CO2. For the experiment the cells were plated on a poly-D-lysine coated 96-well tissue culture plate. After attachment, cell differentiation was induced for 2 days by addition of 10 uM retinoic acid. Cells were treated for 1 h with a dilution of compounds in 0.3% DMSO final concentration before neurite retraction was induced by 5 uM LPA. Cells were stained for tubulin and nuclei and images were acquired on an INCell 1000 workstation. Images were analyzed using the developer toolbox and neurite length was quantitated.

With `COc1ccc2c(c1)CC(C(=O)Nc1ccc(-c3cn[nH]c3)cc1)CO2` (stereo not shown) [Example 92, 6-methoxy-chroman-3-carboxylic acid [4-(1H-pyrazol-4-yl)-phenyl]-amide] as the compound, how does the pIC50 read?
Its pIC50 is 7.57.
